The text below walks through data of patent EP4793271A1, “NEUROPROTECTIVE AGENT” (National Center of Neurology and Psychiatry, priority 2023, dated 2025).

Read-outs that look alike come from different tables or passages of the source.

In assay [1] the test system is primary cultured cells of mouse fetus-derived dorsal root ganglia (DRGs). Nature of the assay: Suppression of axonal degeneration after axotomy in DRG explant culture. To be noted: minimum concentration at which axonal degeneration was suppressed (DI 0.3 or less), 24 hours after axotomy; for minimal effective concentration: Mus musculus, read-out: Evaluation on protection against degeneration. In kind it is cell-based. The method in brief:
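Embryonic ICR mouse DRG explants were cultured 7–8 days in nicotinamide-free neuronal medium with NGF, then axotomized by removing the cell bodies. Compound (100 pM–10 µM final, 0.1% DMSO) was added within 30 min, and neurites were imaged 24 h later. The result is the lowest concentration giving degeneration index ≤0.3.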

Another assay concerns the target T1, hSARM1 (Homo sapiens, UniProt Q6SZW1).
T1 sequence (Q6SZW1 28-724): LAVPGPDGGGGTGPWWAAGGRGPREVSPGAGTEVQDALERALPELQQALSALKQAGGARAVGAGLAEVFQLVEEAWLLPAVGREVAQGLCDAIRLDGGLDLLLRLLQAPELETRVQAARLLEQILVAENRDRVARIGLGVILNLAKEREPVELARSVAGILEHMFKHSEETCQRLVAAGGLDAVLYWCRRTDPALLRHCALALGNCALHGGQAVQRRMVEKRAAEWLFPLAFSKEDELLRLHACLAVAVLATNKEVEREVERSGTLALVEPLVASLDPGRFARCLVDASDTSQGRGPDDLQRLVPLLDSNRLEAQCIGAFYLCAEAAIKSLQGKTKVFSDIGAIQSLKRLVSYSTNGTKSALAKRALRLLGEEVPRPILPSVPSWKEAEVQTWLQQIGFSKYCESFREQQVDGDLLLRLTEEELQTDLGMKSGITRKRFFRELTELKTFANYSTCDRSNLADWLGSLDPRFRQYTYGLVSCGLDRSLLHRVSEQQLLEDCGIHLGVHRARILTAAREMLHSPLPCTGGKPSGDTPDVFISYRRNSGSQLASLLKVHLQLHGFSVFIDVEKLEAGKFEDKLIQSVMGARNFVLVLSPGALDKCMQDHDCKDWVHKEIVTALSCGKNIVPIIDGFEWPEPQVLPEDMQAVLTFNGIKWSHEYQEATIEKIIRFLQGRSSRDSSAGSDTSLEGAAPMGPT
Nature of the assay: Human SARM1 activity measurement in HEK293 cells transiently transfected with ΔN-hSARM1 (PC6 fluorescent probe). Further details: expressed in transfected cells; host or cells: HEK293, pcDNA3 expression vector. In kind it is cell-based. The method in brief:
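HEK293 cells in nicotinamide-free DMEM with 5 μM nicotinamide, transiently transfected with mitochondrial-targeting-deleted ΔN-hSARM1; PC6 base-exchange fluorescent probe (50 μM) plus compound (30 μM) added ~8 h post-transfection. Fluorescence (ex 405/em 525 nm) read ~48 h from transfection; inhibition % versus transfected DMSO control, untransfected background subtracted.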

In assay [2] the target is T2, nicotinamide phosphoribosyl transferase (NAMPT) (Homo sapiens, UniProt P43490).
T2 construct: purchased Medical & Biological Laboratories Co., Ltd. (MBL)
Nature of the assay: NAMPT activity measurement (NMN fluorescence detection). In kind it is biochemical. To be noted: NAMPT recombinant protein, 10 µM Nam; for IC50: read-out: Evaluation on NAMPT inhibitory. The method in brief:
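Recombinant NAMPT reacted with 10 µM Nam, 0.5 µM PRPP, 2 µM ATP in Tris pH 7.4 buffer with MgCl2, DTT, BSA; product NMN quantified by fluorescence (ex 421/em 480 nm) after derivatization with 2-acetylbenzofuran. Compounds at 3 nM–10 µM; control-normalized signal used for IC50.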

[3] abbreviates: inhibition rate, compound 30 µM, PC6 50 µM, HEK293 cells expressing ΔN-hSARM1, approximately 48 hours from transfection, read-out: Evaluation on hSARM1 inhibitory.

T2 sequence (P43490 whole entry, species assumed): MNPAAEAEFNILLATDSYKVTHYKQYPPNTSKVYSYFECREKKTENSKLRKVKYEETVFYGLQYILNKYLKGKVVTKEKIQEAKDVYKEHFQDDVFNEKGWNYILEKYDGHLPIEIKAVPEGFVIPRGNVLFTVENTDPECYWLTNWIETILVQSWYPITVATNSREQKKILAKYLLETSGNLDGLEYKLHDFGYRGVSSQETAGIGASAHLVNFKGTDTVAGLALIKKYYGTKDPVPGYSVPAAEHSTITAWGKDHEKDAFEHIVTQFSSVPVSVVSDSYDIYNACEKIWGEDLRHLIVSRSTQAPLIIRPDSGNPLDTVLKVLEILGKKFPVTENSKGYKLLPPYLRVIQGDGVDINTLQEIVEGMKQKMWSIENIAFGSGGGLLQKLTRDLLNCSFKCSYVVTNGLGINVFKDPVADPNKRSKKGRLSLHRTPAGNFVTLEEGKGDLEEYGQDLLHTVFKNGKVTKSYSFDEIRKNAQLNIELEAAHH

With `O=C(NCc1ccc(NC(=O)c2ccc(C(F)(F)F)cc2)nc1)c1cccnc1` [compound 83], in assay [1], the minimal effective concentration was at most 0.01 µM. The inhibition at 30 µM on hSARM1 (setting [3]) is over 50%. Also, the “Evaluation on NAMPT inhibitory” value in assay [2] is on record as “○”.
In the case of `O=C(NCc1ccc(NC(=O)c2cc(F)cc(C(F)(F)F)c2)nc1)c1cccnc1` [compound 84], the minimal effective concentration in assay [1] lay in the range of 0.01 to 0.1 µM. On hSARM1 (setting [3]), the inhibition at 30 µM is over 75%. The IC50 in assay [2] is at least 100 nM.
Take `O=C(NCc1ccc(NC(=O)c2ccccc2OC(F)(F)F)nc1)c1cccnc1` [compound 85]: the “Evaluation on protection against degeneration” value in assay [1] is reported as “B (0.01 µM < B ≤ 0.1 µM)”. In addition, on hSARM1 (setting [3]), the inhibition at 30 µM was over 75%. In assay [2], the “Evaluation on NAMPT inhibitory” value is on record as “○”.
In the case of `O=C(NCc1ccc(NC(=O)c2cccc(OC(F)(F)F)c2)nc1)c1cccnc1` [compound 86], the minimal effective concentration in assay [1] is 0.01 to 0.1 µM. The inhibition at 30 µM at hSARM1 (setting [3]) is over 75%. For the same compound, the IC50 in assay [2] is at least 100 nM.
For `O=C(NCc1ccc(NC(=O)c2ccc(OC(F)(F)F)cc2)nc1)c1cccnc1` [compound 87], the minimal effective concentration in assay [1] is at most 0.01 µM. For the same compound, on hSARM1 (setting [3]), the inhibition at 30 µM was over 50%. Besides, the “Evaluation on NAMPT inhibitory” value in assay [2] is reported as “○”.
Turning to `CCC(C)(C)C(=O)Nc1ccc(CNC(=O)c2cccnc2)cn1` [compound 88], the minimal effective concentration in assay [1] lay in the range of 0.01 to 0.1 µM. Also, the inhibition at 30 µM at hSARM1 (setting [3]) is over 50%. The “Evaluation on NAMPT inhibitory” value in assay [2] is recorded as “○”.
In the case of `C#CCOc1ccc(C(=O)Nc2ccc(CNC(=O)c3cccnc3)cn2)cc1` [compound 91], in assay [1], the minimal effective concentration is at most 0.01 µM. Also, the inhibition at 30 µM at hSARM1 (setting [3]) is over 50%. Besides, the “Evaluation on NAMPT inhibitory” value in assay [2] is listed as “○”.
Turning to `O=C(NCCCCCCN1CCN(CCOC(=O)c2cccnc2)CC1)c1cccnc1` [compound 95], the minimal effective concentration in assay [1] is at most 0.01 µM. For the same compound, the inhibition at 30 µM on hSARM1 (setting [3]) was over 50%. Moreover, in assay [2], the “Evaluation on NAMPT inhibitory” value was “○”.
For `NCCOCCCCCCCCNC(=O)c1cccnc1` [compound 96], the minimal effective concentration in assay [1] was at most 0.01 µM. The inhibition at 30 µM on hSARM1 (setting [3]) was over 75%. Moreover, the IC50 in assay [2] is at least 100 nM.
For `NCCOCCOCCCCCCCCNC(=O)c1cccnc1` [compound 97], in that order: at most 0.01 µM, over 75% and at least 100 nM.
In the case of `O=C(NCCOCCOc1ccccc1)c1cccnc1` [compound 98], the minimal effective concentration in assay [1] lay in the range of 0.01 to 0.1 µM. In addition, the inhibition at 30 µM on hSARM1 (setting [3]) was over 10%. Also, in assay [2], the “Evaluation on NAMPT inhibitory” value was “○”.
Taken in the same sequence, the figures for `COc1cccc(OCCOCCNC(=O)c2cccnc2)c1` [compound 99] were 0.01 to 0.1 µM, over 50% and “○”.
Turning to `O=C(NCCCC1NC(=O)C(CCCNC(=O)c2cccnc2)NC1=O)c1cccnc1` (stereo not drawn) [compound 103], in assay [1], the minimal effective concentration was in the range of 0.01 to 0.1 µM. Also, at hSARM1 (setting [3]), the inhibition at 30 µM is over 10%. For the same compound, the “Evaluation on NAMPT inhibitory” value in assay [2] is reported as “○”.
For `O=C(NCCCCC1NC(=O)C(CCCCNC(=O)c2cccnc2)NC1=O)c1cccnc1` (stereo not drawn) [compound 104], in that order: 0.1 to 1 µM, over 10% and “○”.
In the case of `NCCCOCCOCCCNC(=O)c1cccnc1` [compound 106], the minimal effective concentration in assay [1] is at most 0.01 µM. Moreover, the inhibition at 30 µM on hSARM1 (setting [3]) is over 25%. In assay [2], the “Evaluation on NAMPT inhibitory” value was “○”.
On to `O=C(NCc1ccc(NC(=O)C2CCOCC2)cc1)c1cccnc1` [compound 108], for which the minimal effective concentration in assay [1] is at most 0.01 µM. Moreover, the inhibition at 30 µM on hSARM1 (setting [3]) was over 75%. The IC50 in assay [2] was at least 100 nM.
For the compound `O=C(NCc1ccc(NC(=O)C2CCC2)cc1)c1cccnc1` [compound 109], the minimal effective concentration in assay [1] was at most 0.01 µM. Moreover, the inhibition at 30 µM at hSARM1 (setting [3]) is over 75%. Also, in assay [2], the “Evaluation on NAMPT inhibitory” value is recorded as “○”.
On to `O=C(NCc1ccc(NC(=O)c2ccccc2)c(F)c1)c1cccnc1` [compound 110], for which the “Evaluation on protection against degeneration” value in assay [1] is “A (A ≤ 0.01 µM)”. The inhibition at 30 µM at hSARM1 (HEK293, read-out: Evaluation on hSARM1 inhibitory) is over 25%. The “Evaluation on NAMPT inhibitory” value in assay [2] is recorded as “○”.
